Test results from US4570006A, “Amidine compound, process for producing same and anti-complement agent comprising same” (Torii & Co. Ltd., priority 1981, dated 1986).
Like-named read-outs stand apart in the source and are kept apart here.

What was measured:
Trypsin = target: T1, Trypsin (Bos taurus, UniProt P00760); test: Anti-trypsin activity (inhibition of TAME hydrolysis); assay type: biochemical; conditions: read-out: ID50, trypsin
T1 sequence (P00760 24-246): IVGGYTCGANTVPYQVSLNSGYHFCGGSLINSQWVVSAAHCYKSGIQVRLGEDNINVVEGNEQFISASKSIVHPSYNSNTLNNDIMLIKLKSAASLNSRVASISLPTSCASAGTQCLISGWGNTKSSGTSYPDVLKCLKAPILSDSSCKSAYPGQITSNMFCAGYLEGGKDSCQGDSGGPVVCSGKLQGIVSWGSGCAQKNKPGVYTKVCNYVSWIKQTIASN
Protocol: (§1) The anti-trypsin, anti-plasmin, anti-kallikrein and anti-thrombin activities were determined according to the method of Muramatsu et al. [M. Muramatsu, T. Onishi, S. Makino, Y. Hayashi and S. Fujii, J. of Biochem., 58, 214 (1965)]. The data summarized in Table 1 are expressed in terms of molar concentration (ID50) of the test compound which inhibits 50% of the activity of each enzyme to hydrolyze TAME (tosylarginine methyl ester). The compound No. corresponds to the compound number shown in Examples.

Plasmin = Plasmin (Homo sapiens, UniProt P00747); test: Anti-plasmin activity (inhibition of TAME hydrolysis); assay type: biochemical; conditions: read-out: ID50, plasmin
Protocol: as §1

Kallikrein = test: Anti-kallikrein activity (inhibition of TAME hydrolysis); assay type: biochemical; conditions: read-out: ID50, kallikrein
Protocol: as §1

Thrombin = Thrombin (Homo sapiens, UniProt P00734); test: biochemical; conditions: read-out: ID50, thrombin
Clr = target: T2, Clr (Homo sapiens, UniProt P00736); test: Anti-Cl esterase activity, Clr (AAME hydrolysis); assay type: biochemical; conditions: hydrolysis of AAME; read-out: Anti-Cl activity, Clr (ID50)
T2 sequence (P00736 464-705 limits assumed): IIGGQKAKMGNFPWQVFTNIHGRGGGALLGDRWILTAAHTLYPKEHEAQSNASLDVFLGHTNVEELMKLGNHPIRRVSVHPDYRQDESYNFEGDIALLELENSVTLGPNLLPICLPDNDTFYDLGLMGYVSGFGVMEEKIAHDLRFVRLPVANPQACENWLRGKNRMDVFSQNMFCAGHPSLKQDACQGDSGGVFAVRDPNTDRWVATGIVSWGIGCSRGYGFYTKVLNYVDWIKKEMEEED
T2 sequence (P00736 18-463 limits assumed): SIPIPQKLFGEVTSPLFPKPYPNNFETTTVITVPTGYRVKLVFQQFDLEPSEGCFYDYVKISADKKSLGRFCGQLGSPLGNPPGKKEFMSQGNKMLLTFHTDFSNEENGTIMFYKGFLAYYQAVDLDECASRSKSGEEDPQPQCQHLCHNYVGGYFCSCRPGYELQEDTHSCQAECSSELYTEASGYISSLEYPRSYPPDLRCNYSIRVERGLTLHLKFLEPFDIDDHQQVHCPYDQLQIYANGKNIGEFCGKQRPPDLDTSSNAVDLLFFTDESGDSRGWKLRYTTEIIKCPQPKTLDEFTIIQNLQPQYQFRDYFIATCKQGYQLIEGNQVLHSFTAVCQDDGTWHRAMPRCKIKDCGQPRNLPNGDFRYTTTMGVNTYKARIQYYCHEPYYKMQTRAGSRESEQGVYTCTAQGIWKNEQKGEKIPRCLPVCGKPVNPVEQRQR
Protocol: The anti-Cl esterase ([…]) activity was determined according to the method of Okamura et al. [K. Okamura, M. Muramatsu and B. Fujii, Biochem. Biophys.

Cls = target: T3, Cls (Homo sapiens, UniProt P09871); test: Anti-Cl esterase activity, Cls (ATEE hydrolysis); assay type: biochemical; conditions: hydrolysis of ATEE; read-out: Anti-Cl activity, Cls (50% inhibition)
T3 sequence (P09871 438-688 limits assumed): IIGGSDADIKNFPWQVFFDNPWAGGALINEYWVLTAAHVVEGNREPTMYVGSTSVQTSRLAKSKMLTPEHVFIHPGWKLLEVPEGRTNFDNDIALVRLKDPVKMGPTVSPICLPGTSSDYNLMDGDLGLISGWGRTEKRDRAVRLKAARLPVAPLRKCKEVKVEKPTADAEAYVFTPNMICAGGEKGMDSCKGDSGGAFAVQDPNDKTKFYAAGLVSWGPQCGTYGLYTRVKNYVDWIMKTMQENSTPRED
T3 sequence (P09871 16-437 limits assumed): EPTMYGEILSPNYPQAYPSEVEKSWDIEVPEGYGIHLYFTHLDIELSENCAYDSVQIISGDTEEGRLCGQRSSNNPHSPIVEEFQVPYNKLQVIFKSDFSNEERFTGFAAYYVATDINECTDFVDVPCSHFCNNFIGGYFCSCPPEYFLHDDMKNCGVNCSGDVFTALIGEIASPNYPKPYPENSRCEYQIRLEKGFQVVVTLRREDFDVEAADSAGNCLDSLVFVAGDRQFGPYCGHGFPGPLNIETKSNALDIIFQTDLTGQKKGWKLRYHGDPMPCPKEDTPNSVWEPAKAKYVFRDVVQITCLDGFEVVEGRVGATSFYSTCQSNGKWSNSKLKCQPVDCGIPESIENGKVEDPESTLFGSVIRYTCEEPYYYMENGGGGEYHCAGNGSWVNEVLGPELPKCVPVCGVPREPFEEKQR
Protocol: The anti-Cl esterase (Clr, Cls) activity was determined according to the method of Okamura et al. [K. Okamura, M. Muramatsu and B. Fujii, Biochem. Biophys. […] The figures in Table 2 have the following meanings:
Cls: Molar concentration of the test compound which inhibits 50% of the ability of Cls to hydrolyse ATEE (acetyltyrosin ethyl ester).

complement = test: Inhibition of complement mediated hemolysis; assay type: cell-based

Sequence of Plasmin (P00747 581-810 limits assumed, species assumed): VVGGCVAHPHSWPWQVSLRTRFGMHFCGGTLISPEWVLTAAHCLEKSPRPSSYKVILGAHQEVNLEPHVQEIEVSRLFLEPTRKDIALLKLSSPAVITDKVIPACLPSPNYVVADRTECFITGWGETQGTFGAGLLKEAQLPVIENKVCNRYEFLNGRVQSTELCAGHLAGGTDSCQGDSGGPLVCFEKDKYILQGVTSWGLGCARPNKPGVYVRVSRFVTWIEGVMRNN
Sequence of Plasmin (P00747 97-580 limits assumed, species assumed): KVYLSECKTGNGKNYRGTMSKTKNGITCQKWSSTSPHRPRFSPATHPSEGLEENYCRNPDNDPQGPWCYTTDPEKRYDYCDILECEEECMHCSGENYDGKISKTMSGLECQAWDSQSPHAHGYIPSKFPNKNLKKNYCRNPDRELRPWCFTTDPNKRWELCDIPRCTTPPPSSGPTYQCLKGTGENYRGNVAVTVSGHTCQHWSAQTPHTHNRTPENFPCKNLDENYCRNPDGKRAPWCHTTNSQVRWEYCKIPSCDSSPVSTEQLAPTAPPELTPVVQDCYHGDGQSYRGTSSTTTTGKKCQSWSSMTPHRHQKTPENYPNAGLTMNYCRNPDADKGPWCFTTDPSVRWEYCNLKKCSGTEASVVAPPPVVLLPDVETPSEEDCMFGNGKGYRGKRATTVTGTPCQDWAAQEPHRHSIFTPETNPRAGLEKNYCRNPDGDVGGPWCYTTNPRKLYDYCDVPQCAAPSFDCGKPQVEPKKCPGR

Row | IC50 (Thrombin) [nM] | SMILES | IC50 (Trypsin) [nM] | IC50 (Plasmin) [nM] | IC50 (Kallikrein) [nM] | IC50 (Thrombin; TAME hydrolysis) [nM] | IC50 (Clr) [nM] | IC50 (Cls) [nM] | Inhibition of complement mediated hemolysis (%) (complement; compound at 1 × 10^-4) | Inhibition of complement mediated hemolysis (%) (complement; compound at 1 × 10^-5) | Inhibition of complement mediated hemolysis (%) (complement; compound at 1 × 10^-6) | Inhibition of complement mediated hemolysis (%) (complement; compound at 1 × 10^-7)
1 |  | N=C(N)c1ccc(OC(=O)c2ccc(C=O)cc2)c(C(=O)c2ccccc2)c1 [Compound 52] | 3000 | 200 | > 10000 | 90 | 5000 | 3000 | 100 | 98.8 | 75.4 | 12.8
2 |  | COC(=O)c1cc(C(=N)N)ccc1OC(=O)c1ccc(CNC(=O)OCc2ccccc2)cc1 [Compound 59] | 500 | 70 | 700 | 4000 | 2000 | 300 | 100 | 100 | 76.0 | 15.6
3 |  | N=C(N)c1ccc(OC(=O)C=Cc2ccc3c(c2)OCO3)c([N+](=O)[O-])c1 [Compound 48] | 2000 | 200 | 8000 | 400 | > 10000 | 3000 | 94.0 | 94.8 | 75.3 | 23.2
4 |  | COC(=O)c1cc(C(=N)N)ccc1OC(=O)[C@H]1CC[C@H](CN)CC1 [Compound 19, 4-amidino-2-methyoxycarbonylphenyl trans-4-aminomethylcyclohexanecarboxylate] | > 10000 | > 10000 | > 10000 | > 10000 | > 10000 | > 10000 | 99.2 | 83.4 | 15.0 | 5.0
5 |  | COC(=O)c1cc(C(=N)N)ccc1OC(=O)c1ccc(CN)cc1 [Compound 60] | 1000 | 4000 | 2000 | > 10000 | 3000 | 800 | 100 | 100 | 89.8 | 44.4
6 |  | N=C(N)c1ccc(OC(=O)[C@H]2CC[C@H](CNC(=O)OCc3ccccc3)CC2)c(C(=O)c2ccccc2)c1 [Compound 20] | 1000 | 600 | 600 | 500 | > 10000 | 300 | 96.8 | 80.3 | 13.0 | 1.8
7 |  | N=C(N)c1ccc(OC(=O)c2ccccc2)c(NC(=O)c2ccccc2)c1 [Compound 30, 4-amidino-2-benzoylaminophenyl benzoate] | 300 | 400 | 200 | 30 | 900 | 300 | 100 | 100 | 99.0 | 45.3
8 |  | COc1cc(C(=N)N)ccc1OC(=O)c1ccc(CNC(=O)OCc2ccccc2)cc1 [Compound 57, 4-amidino-2-methoxyphenyl 4-benzyloxycarbonylaminomethylbenzoate] | 2000 | 200 | 3000 | 8000 | > 10000 | 2000 | 70.5 | 14.8 | 2.3 | 0
9 | 3000 | N=C(N)c1ccc(OC(=O)C=Cc2ccccc2)c([N+](=O)[O-])c1 [Compound 34] | 4000 | 4000 | > 10000 |  | 3000 | 3000 | 99.6 | 96.7 | 53.7 | 12.4
10 |  | N=C(N)c1ccc(OC(=O)c2ccccc2)c(C(=O)c2ccccc2)c1 [Compound 29, 4-amidino-2-benzoylphenyl benzoate] | 800 | 400 | 1000 | 30 | 3000 | 300 | 98.4 | 97.9 | 67.8 | 8.0
11 |  | N=C(N)c1ccc(OC(=O)c2ccccc2)c([N+](=O)[O-])c1 [Compound 27, 4-amidino-2-nitrophenyl benzoate] | 300 | 400 | 4000 | 100 | 500 | 200 | 100 | 100 | 95.5 | 26.2
12 |  | N=C(N)c1ccc(OC(=O)c2ccc(CNC(=O)OCc3ccccc3)cc2)c([N+](=O)[O-])c1 [Compound 61] | 200 | 200 | 1000 | 400 | 400 | 300 | 98.6 | 100 | 98.0 | 76.1
13 |  | COc1cc(C(=N)N)ccc1OC(=O)c1ccc(CN)cc1 [Compound 58, 4-amidino-2-methoxyphenyl 4-aminomethylbenzoate] | 8000 | 8000 | 2000 | > 10000 | > 10000 | 4000 | 93.4 | 20.0 | 3.0 | 0
14 |  | N=C(N)c1ccc(OC(=O)[C@H]2CC[C@H](CN)CC2)c(C(=O)c2ccccc2)c1 [Compound 21] | > 10000 | > 10000 | > 10000 | > 10000 | > 10000 | 4000 | 99.3 | 99.9 | 60.2 | 10.9
